According to PubChem BioAssay AID330 (DTP/NCI, 2004):
Values joined by “and” are separate entries in the source; they are usually repeats but may differ in a detail not shown here. Identical values can stand only once. Toxic doses and inconclusive results are not listed.

System: P388 leukemia ip, CD2F1 mice, survival T/C
Assay: NCI In Vivo Anticancer Drug Screen. Data for tumor model P388 Leukemia (intraperitoneal) in CD2F1 (CDF1) mice
Conditions: endpoint: median survival time, higher = longer survival
Method in brief: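 Mice carrying the transplanted tumor received test compound or vehicle. Survival was recorded in each group, and the value is the treated-group measurement divided by that of the vehicle-treated control group.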

[1] = dose: 60.0 mg/kg/injection, schedule: Q01DX005 (ip), vehicle: saline with Tween-80
[2] = dose: 120.0 mg/kg/injection, schedule: Q01DX005 (ip), vehicle: saline with Tween-80
[3] = dose: 240.0 mg/kg/injection, schedule: Q01DX005 (ip), vehicle: saline with Tween-80
[4] = dose: 12.5 mg/kg/injection, schedule: Q01DX005 (ip), vehicle: saline with Tween-80
[5] = dose: 25.0 mg/kg/injection, schedule: Q01DX005 (ip), vehicle: saline with Tween-80
[6] = dose: 50.0 mg/kg/injection, schedule: Q01DX005 (ip), vehicle: saline with Tween-80
[7] = dose: 50.0 mg/kg/injection, schedule: Q01DX005 (ip), vehicle: saline
[8] = dose: 100.0 mg/kg/injection, schedule: Q01DX005 (ip), vehicle: saline
[9] = dose: 200.0 mg/kg/injection, schedule: Q01DX005 (ip), vehicle: saline
[10] = dose: 12.5 mg/kg/injection, schedule: Q01DX009 (ip), vehicle: saline with Tween-80
[11] = dose: 50.0 mg/kg/injection, schedule: Q01DX009 (ip), vehicle: saline with Tween-80
[12] = dose: 50.0 mg/kg/injection, schedule: Q01DX005 (ip), vehicle: Klucel (hydroxypropylcellulose) (HPC)
[13] = dose: 100.0 mg/kg/injection, schedule: Q01DX005 (ip), vehicle: Klucel (hydroxypropylcellulose) (HPC)
[14] = dose: 200.0 mg/kg/injection, schedule: Q01DX005 (ip), vehicle: Klucel (hydroxypropylcellulose) (HPC)
[15] = dose: 100.0 mg/kg/injection, schedule: Q01DX009 (ip), vehicle: saline with Tween-80
[16] = dose: 200.0 mg/kg/injection, schedule: Q01DX009 (ip), vehicle: saline with Tween-80
[17] = dose: 7.5 mg/kg/injection, schedule: Q01DX005 (ip), vehicle: saline with Tween-80
[18] = dose: 15.0 mg/kg/injection, schedule: Q01DX005 (ip), vehicle: saline with Tween-80

SMILES: CC(=Nc1c(Cl)c(Cl)c2c(c1Cl)C(=O)c1cc(Cl)ccc1-2)NO
- T/C [1]: 97 % of control
- T/C [2]: 104 % of control
- T/C [3]: 95 % of control

SMILES: O=C1CC(Cl)(CS(F)(F)(F)(F)F)O1 (centres undefined)
- T/C (dose: 12.5 mg/kg/injection, schedule: Q01DX005 (ip), vehicle: saline + alcohol): 100 % of control
- T/C [4]: 104 % of control
- T/C (dose: 25.0 mg/kg/injection, schedule: Q01DX005 (ip), vehicle: saline + alcohol): 103 % of control
- T/C [5]: 109 % of control
- T/C (dose: 50.0 mg/kg/injection, schedule: Q01DX005 (ip), vehicle: saline + alcohol): 99 % of control
- T/C [6]: 110 % of control and 114 % of control

SMILES: CCN(CC)CC(C)Nc1ccc(C)c2sc3ccccc3c(=O)c12 (centres undefined)
- T/C (dose: 75.0 mg/kg/injection, schedule: Q01DX009 (ip), vehicle: saline): 175 % of control
- T/C (dose: 300.0 mg/kg/injection, schedule: Q01DX009 (ip), vehicle: saline): 100 % of control

SMILES: CC1=NN(c2cc(S(=O)(=O)O)ccc2Cl)C(=O)C1
- T/C (dose: 50.0 mg/kg/injection, schedule: Q01DX009 (ip), vehicle: saline): 101 % of control
- T/C (dose: 100.0 mg/kg/injection, schedule: Q01DX009 (ip), vehicle: saline): 105 % of control
- T/C (dose: 200.0 mg/kg/injection, schedule: Q01DX009 (ip), vehicle: saline): 97 % of control

SMILES: CCOc1nc(N)nc(C)c1N=Nc1ccc(Cl)cc1Cl
- T/C (dose: 60.0 mg/kg/injection, schedule: Q01DX005 (ip), vehicle: Klucel + Tween-80): 100 % of control
- T/C (dose: 120.0 mg/kg/injection, schedule: Q01DX005 (ip), vehicle: Klucel + Tween-80): 110 % of control

SMILES: CC(C)NCC(O)c1ccccc1Cl (centres undefined)
- T/C [4]: 100 % of control
- T/C [5]: 104 % of control
- T/C [6]: 100 % of control and 90 % of control

SMILES: Cc1cccnc1Br
- T/C (dose: 25.0 mg/kg/injection, schedule: Q01DX009 (ip), vehicle: water): 96 % of control
- T/C (dose: 200.0 mg/kg/injection, schedule: Q01DX009 (ip), vehicle: water): 89 % of control

SMILES: CN1C2CCC1C(CO)C(O)C2 (centres undefined)
- T/C [7]: 98 % of control
- T/C [8]: 103 % of control
- T/C [9]: 107 % of control

SMILES: COc1ccc(C2OCC3C2CO[C@H]3c2ccc(OC)c(OC)c2)cc1OC (mixture of isomers)
- T/C (dose: 8.0 mg/kg/injection, schedule: Q01DX009 (ip), vehicle: Klucel (hydroxypropylcellulose) (HPC)): 90 % of control
- T/C (dose: 16.0 mg/kg/injection, schedule: Q01DX009 (ip), vehicle: Klucel (hydroxypropylcellulose) (HPC)): 97 % of control
- T/C (dose: 32.0 mg/kg/injection, schedule: Q01DX009 (ip), vehicle: Klucel (hydroxypropylcellulose) (HPC)): 91 % of control
- T/C (dose: 64.0 mg/kg/injection, schedule: Q01DX009 (ip), vehicle: Klucel (hydroxypropylcellulose) (HPC)): 89 % of control

SMILES: C/C(=N\N/C(N)=N/S(=O)(=O)c1ccc(C)cc1)c1ccc(C)cc1
- T/C (dose: 50.0 mg/kg/injection, schedule: Q04DX002 (ip), vehicle: saline with Tween-80): 100 % of control
- T/C (dose: 100.0 mg/kg/injection, schedule: Q04DX002 (ip), vehicle: saline with Tween-80): 97 % of control
- T/C (dose: 200.0 mg/kg/injection, schedule: Q04DX002 (ip), vehicle: saline with Tween-80): 98 % of control

SMILES: Cc1[nH]nc(C(N)=O)c1N=NN(C)C
- T/C [10]: 113 % of control
- T/C [11]: 204 % of control and 209 % of control
- T/C (dose: 50.0 mg/kg/injection, schedule: Q04DX003 (ip), vehicle: saline with Tween-80): 122 % of control
- T/C (dose: 100.0 mg/kg/injection, schedule: Q04DX003 (ip), vehicle: saline with Tween-80): 150 % of control
- T/C (dose: 132.0 mg/kg/injection, schedule: Q04DX003 (ip), vehicle: saline with Tween-80): 159 % of control
- T/C (dose: 200.0 mg/kg/injection, schedule: Q04DX003 (ip), vehicle: saline with Tween-80): 154 % of control

SMILES: COc1ccc(N2C(=O)C3CSCN3C2=O)cc1 (centres undefined)
- T/C [1]: 100 % of control
- T/C [2]: 94 % of control
- T/C [3]: 92 % of control

SMILES: CC1(C)N(/N=C/c2ccccc2)C(c2ccccc2)C(c2ccccc2)N1/N=C/c1ccccc1 (centres undefined)
- T/C [12]: 86 % of control
- T/C [13]: 89 % of control
- T/C [14]: 87 % of control

SMILES: CSC(=S)N/N=C(\Cc1ccccc1)c1ccccn1
- T/C [4]: 103 % of control
- T/C [5]: 106 % of control
- T/C [6]: 99 % of control and 108 % of control
- T/C (dose: 100.0 mg/kg/injection, schedule: Q01DX005 (ip), vehicle: saline with Tween-80): 107 % of control
- T/C (dose: 200.0 mg/kg/injection, schedule: Q01DX005 (ip), vehicle: saline with Tween-80): 107 % of control

SMILES: CCC1(CC)COC(C)(C(=O)O)OC1
- T/C (dose: 25.0 mg/kg/injection, schedule: Q01DX009 (ip), vehicle: saline with Tween-80): 102 % of control
- T/C [11]: 102 % of control
- T/C [15]: 94 % of control
- T/C [16]: 96 % of control

SMILES: Cc1nc2cc(C(=O)NC=O)c3n[nH]nc3c2n1C
- T/C (dose: 4.0 mg/kg/injection, schedule: Q01DX005 (ip), vehicle: DMSO): 98 % of control
- T/C (dose: 8.0 mg/kg/injection, schedule: Q01DX005 (ip), vehicle: DMSO): 103 % of control
- T/C (dose: 16.0 mg/kg/injection, schedule: Q01DX005 (ip), vehicle: DMSO): 94 % of control
- T/C (dose: 32.0 mg/kg/injection, schedule: Q01DX005 (ip), vehicle: DMSO): 93 % of control

SMILES: C=CCN1C(=O)[N+](C)(C)N=C1[O-]
- T/C (dose: 100.0 mg/kg/injection, schedule: Q04DX003 (ip), vehicle: saline): 106 % of control
- T/C (dose: 200.0 mg/kg/injection, schedule: Q04DX003 (ip), vehicle: saline): 106 % of control
- T/C (dose: 400.0 mg/kg/injection, schedule: Q04DX003 (ip), vehicle: saline): 101 % of control

SMILES: CCN(CC)CCCNc1nnnc2ccccc12
- T/C (dose: 100.0 mg/kg/injection, schedule: Q04DX002 (ip), vehicle: saline): 103 % of control
- T/C (dose: 200.0 mg/kg/injection, schedule: Q04DX002 (ip), vehicle: saline): 90 % of control

SMILES: O=C(O)C(CO)Nc1ncnc2nc[nH]c12 (centres undefined)
- T/C [12]: 106 % of control
- T/C [13]: 109 % of control
- T/C [14]: 109 % of control

SMILES: C[N+]1(CCC(/C=C/c2ccc([N+](=O)[O-])cc2)=N\O)CCOCC1
- T/C [17]: 107 % of control
- T/C [18]: 93 % of control
- T/C (dose: 30.0 mg/kg/injection, schedule: Q01DX005 (ip), vehicle: saline with Tween-80): 100 % of control

SMILES: CCOC(=O)\C(C#N)=C/C=C(C)/C(C)=C/Nc1ccc([N+](=O)[O-])cc1[N+](=O)[O-]
- T/C [12]: 101 % of control
- T/C [13]: 91 % of control
- T/C [14]: 91 % of control

SMILES: Cn1nc(-c2ccc(Cl)c(Cl)c2)[n+]([O-])c2c(=O)n(C)c(=O)nc1-2
- T/C (dose: 6.25 mg/kg/injection, schedule: Q01DX009 (ip), vehicle: saline with Tween-80): 120 % of control
- T/C [10]: 110 % of control and 115 % of control

SMILES: O=c1c2ccccc2sc2c(N(CCO)CCO)cc3c(c12)CCCC3
- T/C (dose: 25.0 mg/kg/injection, schedule: Q01DX005 (ip), vehicle: distilled water + Tween-80): 103 % of control
- T/C (dose: 50.0 mg/kg/injection, schedule: Q01DX005 (ip), vehicle: distilled water + Tween-80): 101 % of control
- T/C (dose: 100.0 mg/kg/injection, schedule: Q01DX005 (ip), vehicle: distilled water + Tween-80): 100 % of control
- T/C (dose: 200.0 mg/kg/injection, schedule: Q01DX005 (ip), vehicle: distilled water + Tween-80): 95 % of control

SMILES: CN1CCN(C#CC(=O)c2ccc(Cl)cc2)CC1
- T/C [17]: 114 % of control
- T/C [18]: 117 % of control

SMILES: CC1C(c2ccccc2)OCN1C (centres undefined)
- T/C (dose: 12.5 mg/kg/injection, schedule: Q01DX005 (ip), vehicle: saline): 110 % of control and 88 % of control
- T/C (dose: 25.0 mg/kg/injection, schedule: Q01DX005 (ip), vehicle: saline): 100 % of control and 116 % of control
- T/C [7]: 110 % of control [middle of 5 runs]
- T/C [8]: 118 % of control and 109 % of control
- T/C [9]: 116 % of control

SMILES: O=C(O)Cc1c(-c2ccccc2)n[nH]c1-c1[nH]nc(-c2ccccc2)c1CC(=O)O
- T/C (dose: 60.0 mg/kg/injection, schedule: Q01DX005 (ip), vehicle: saline): 95 % of control
- T/C (dose: 120.0 mg/kg/injection, schedule: Q01DX005 (ip), vehicle: saline): 95 % of control
- T/C (dose: 240.0 mg/kg/injection, schedule: Q01DX005 (ip), vehicle: saline): 104 % of control

SMILES: CC(C)C(=O)Nc1ccc(S(=O)(=O)Nc2ccc(N)cc2O)cc1
- T/C [11]: 96 % of control
- T/C [15]: 101 % of control
- T/C [16]: 104 % of control
